Tested on: HCC patient-derived spheroids (primary HCC tumorspheres)
Assay: HCC patient-derived spheroid viability (CellTiterGlo 3D, ATP quantification)
Type: cell-based, human
Settings: HCC spheroids from 15 different HCC patients; 6 days; H3L3 10 μg/mL, sorafenib 10 μM, nivolumab 10 μg/mL; vs control mAb; FIG. 1C
From the text: Fragments of tumor tissue (5×5 mm to 8×8 mm size) were excised from tumor mass of HCC patients (n=15 different donors, Table 2) and then processed with enzymatic and mechanical dissociation to generate clusters of tumor cells similarly as described recently (Crouchet E, et al., Nat Commun 2021; 12:5525; Jühling F, et al., Gut 2021; 70:157-69). Aggregates of cells were assembled into spheroids in 96-well Black/Clear Bottom Low Flange Ultra-Low Attachment Microplates (Corning) and cultured in MammoCult basal medium (STEMCELL Technologies), supplemented with human proliferation supplement (3.4%), hydrocortisone (0.056%), heparin (0.011%) and 50% patients' own serum.
Tumorspheres were treated for 6 days with 10 μg/mL isotype control mAb, with 10 μg/mL anti-Claudin-1 mAb “H3L3” (Table 1), with sorafenib (10 μM, Selleckchem) or with Nivolumab (10 μg/mL, Selleckchem) with at least duplicates per condition. Tumorsphere viability was assessed at day 6 using CellTiterGlo 3D (Promega) according to the manufacturer's instructions.

Row | Molecule | response rate (defined as a mean decrease in cell viability of >15%) [%]
1 | CNC(=O)c1cc(Oc2ccc(NC(=O)Nc3ccc(Cl)c(C(F)(F)F)c3)cc2)ccn1 [sorafenib, 4-[4-[[4-chloro-3-(trifluoromethyl)phenyl]carbamoylamino]phenoxy]-N -methyl-pyridine-2-carboxamide, reference compound] | 33
2 | nivolumab [reference compound] | 15
